Where two headings read alike, the source gives them in different places. Blank lines part the entries; values can stand above or below the molecule they belong to.
Tests used:
[1] = test system: human neutrophils; experiment: Neutrophil oxidative burst, DHR oxidation; conditions: for Effect of inhibitors on AgNP-induced DHR oxidation: DPI 10 µM, VAS2870 25 µM, Gö6983 1 µM, added with AgNP 10 µg/mL (4 nm and 19 nm); for Percentage of inhibition at the highest tested concentration: 25 μM flavonoid
Procedure: All patient-related procedures and protocols were performed in accordance with the Declaration of Helsinki and approved by the Ethics Committee of Centro Hospitalar do Porto. After written informed consent was obtained, venous blood from healthy human volunteers was collected by antecubital phlebotomy into vacuum tubes with K3EDTA. The isolation of human neutrophils was performed by the density gradient centrifugation method, as previously reported by our research group. Cells were resuspended in Tris buffer (25 mM Tris, 1.26 mM CaCl2, 5.37 mM KCl, 0.81 mM MgSO4, 140 mM NaCl and 5.55 mM D-Glucose) and the cell viability and cell yield (number of cells/mL) were determined by the trypan blue exclusion method using a Neubauer chamber.
The measurement of neutrophil oxidative burst was performed by monitoring the oxidation of DHR, by neutrophil-generated reactive species. Neutrophils (3 × 10^6 cells/mL) were incubated in a humidified incubator, at 37 °C, with 4 nm or 19 nm AgNP (0–10 µg/mL) alone or with flavonoids (0–25 µM) followed by DHR (10 µM) for 1 h 30 min.
The NADPH oxidase inhibitors, DPI (10 µM) and VAS2870 (25 µM), and the protein kinase C (PKC) inhibitor, Gö6983 (1 µM), were also tested, by their concomitant addition with AgNP (10 µg/mL). The fluorescence was measured in a microplate reader (λexcitation = 507 ± 20 nm/λemmission = 529 ± 20 nm).

[2] = test system: Caco-2 cell line; experiment: MTT reduction assay, cytotoxicity in Caco-2 cells; conditions: for Selected Maximum Concentration (maximum non-cytotoxic flavonoid concentration): Caco-2 cells, 24 h, MTT assay, tested 3.13 to 50 μM; for Protection against AgNP-induced cytotoxicity: 24 h co-incubation with 20 or 50 μg/mL AgNP (4 and 19 nm), non-toxic flavonoid concentrations (quercetagetin 50 µM)
Procedure: Cells were grown in a 5% CO2 atmosphere at 37 °C. For each experiment, the cells were used when reaching 80% of confluence, which represented 3 to 5 days of differentiation. Then, the proliferating Caco-2 cells were treated 24 h after seeding.
The MTT reduction assay was used to determine the cytotoxicity of PEI coated-AgNP of two sizes (4 and 19 nm) in the Caco-2 cell line. […] After the exposure period, the culture medium was replaced with fresh medium containing 0.5 mg/mL MTT and the cells were further incubated for 2 h. The resulting dark purple crystals of formazan were then dissolved in DMSO and the absorbance of the corresponding solution, which was directly proportional to the number of living cells, was measured in an automatic plate reader set at a test wavelength of 570 nm and a reference wavelength of 620 nm.

[3] = test system: Caco-2 cell line; experiment: Annexin V-FITC versus propidium iodide flow cytometry (cell death); conditions: for Apoptosis-preventive effect (apoptotic population versus AgNP controls): flavonoid 25 μM co-incubated 24 h with 4 nm and 19 nm AgNP 20 µg/mL, Caco-2
Procedure: The evaluation of cell death was analyzed by flow cytometry, following simultaneous staining with propidium iodide (PI) and Annexin V labeled with fluorescein isothiocyanate (FITC), according to a previously described method, using the Annexin V-FITC Apoptosis Detection Kit. Briefly, 5 × 10^5 cells/well were seeded in 6 well plates and exposed to 20 μg/mL AgNP (4 and 19 nm) and/or to the flavonoids quercetin or quercetagetin (25 μM) for 24 h. […] After the 24 h exposure, cell supernatants were discarded, and cells were washed with DPBS buffer and detached from cells plates with trypsin:EDTA solution. Individualized cells were counted in a Neubauer chamber, and after DPBS wash, cells were resuspended at a density of 1 × 10^6 cells/mL binding buffer provided by the kit. Subsequently, 1 × 10^5 cells were transferred to suitable cytometry tubes, and Annexin V-FITC and PI were added. The mixture was incubated for 15 min and at least 10,000 events were immediately read in a BD Accuri™ C6 Plus Flow Cytometer (BD biosciences, Becton, Franklin Lakes, NJ, USA). The green fluorescence corresponding to Annexin-V conjugated with FITC was followed in channel 1 (FL1) and plotted as a histogram of FL1 staining. Fluorescence due to the PI incorporation was followed in channel 3 (FL3).

[4] = test system: Caco-2 cell line; experiment: Nitrite measurement by Griess reaction (•NO production); type: cell-based, human; conditions: for Prevention of AgNP-induced •NO production: flavonoids at maximum non-cytotoxic concentrations, Caco-2, 24 h, data not shown
Procedure: Nitrite measurement was based on the colorimetric detection of the reaction product of nitrite with naphthylethylenediamine dihydrochloride. The concentration of nitrite, which reflects nitric oxide (^•NO) production, was measured in the cell-free supernatants collected from the Caco-2 cell line. […] After the incubation period, 150 μL of culture medium was collected and placed in 96-well plates. […] The absorbance was measured at 570 nm using an automatic plate reader.

[5] = test system: Caco-2 cells; conditions: cited from earlier work
[6] = test system: human neutrophils; experiment: Neutrophil viability, PI staining flow cytometry; type: cell-based; conditions: PEI 10 μg/mL, AgNO3 3 μg/mL, data not shown
Procedure: Following exposure, cells were centrifuged (400× g at 20 °C, during 5 min) and the supernatant was discarded. The pellet was resuspended in DPBS solution and centrifuged (200g at 20 °C, during 5 min). After centrifugation, the pellet was resuspended with 100 μL propidium iodide solution (1 µg/mL) and incubated for 15 min in the dark. After this time, 400 μL of DPBS buffer was added and the fluorescence was measured in flow cytometer. To restrict the analysis to neutrophils only, a polygon gate was set according to their light scattering properties (in a forward vs. side scatter plot) excluding cell debris and other blood cells. Fluorescence signals for at least 10,000 cells were collected in logarithmic mode and the data were analyzed using C Flow (Accuri®) software (BD, Becton, Dickinson and Company, Franklin Lakes, NJ, USA).

[7] = Homo sapiens, Neutrophil, read-out: IC50 (Mean ± SEM), inhibition of AgNP 4 nm-induced oxidative burst, AgNP 4 nm, human neutrophils, DHR
[8] = Homo sapiens, Neutrophil, read-out: IC50 (Mean ± SEM), inhibition of AgNP 19 nm-induced oxidative burst, AgNP 19 nm, human neutrophils, DHR
[9] = read-out: IC50 (Mean ± SEM), inhibition of AgNP 4 nm-induced oxidative burst, AgNP 4 nm, human neutrophils, DHR

SMILES: COc1ccc2c(c1)c(C1=C(c3c[nH]c4ccccc34)C(=O)NC1=O)cn2CCCN(C)C [Gö6983, 3-[1-[3-(dimethylamino)propyl]-5-methoxy-1H-indol-3-yl]-4-(1H-indol-3-yl)-1H-pyrrole-2,5-dione, reference compound]
Effect of inhibitors on AgNP-induced DHR oxidation [1]: prevented the activation of neutrophil oxidative burst induced by AgNP

IC50 [1, 7]: 2.3 ± 0.1 µM
IC50 [1, 8]: 3.1 ± 0.2 µM
SMILES: O=c1c(O)c(-c2cc(O)c(O)c(O)c2)oc2cc(O)cc(O)c12 [Myricetin]
Selected Maximum Concentration (maximum non-cytotoxic flavonoid concentration) [2]: 50.0 µM

SMILES: O=c1c(O)c(-c2ccc(O)c(O)c2)oc2c(O)c(O)cc(O)c12 [Gossypetin]
IC50 ([1]; Homo sapiens, Neutrophil, read-out: IC50 (Mean ± SEM), inhibition of AgNP 4 nm-induced oxidative burst): 2.1 ± 0.3 µM
IC50 ([1]; Homo sapiens, Neutrophil, read-out: IC50 (Mean ± SEM), inhibition of AgNP 19 nm-induced oxidative burst): 4.5 ± 1.2 µM

SMILES: O=c1c(O)c(-c2ccc(O)c(O)c2)oc2cc(O)c(O)c(O)c12 [Quercetagetin]
Percentage of apoptotic cells on co-treatment ([3]; co-treatment with 4 nm AgNP (20 μg/mL), Caco-2, 24 h): increased the percentage of apoptotic cells
Apoptosis-preventive effect (apoptotic population versus AgNP controls) [3]: did not significantly decrease the apoptotic population
IC50 [1, 7]: < 1 µM
IC50 [1, 8]: 3 ± 0.2 µM
IC50 [1, 9]: 0.53 ± 0.06 µM
Protection against AgNP-induced cytotoxicity [2]: prevented the cytotoxic effects of the two sizes of AgNP
Protection against AgNP-induced cytotoxicity ([2]; listed as quercetagetin): significantly reduced the cell death induced by AgNP of 4 and 19 nm
Selected Maximum Concentration (maximum non-cytotoxic flavonoid concentration) [2]: 50.0 µM
Prevention of AgNP-induced •NO production [4]: neither quercetin nor quercetagetin prevented AgNP-induced ^•NO production

SMILES: O=c1c(O)c(-c2ccc(O)c(O)c2)oc2cc(O)cc(O)c12 [Quercetin]
Apoptosis-preventive effect (apoptotic population versus AgNP controls) [3]: reversed the pro-apoptotic effect of AgNP
IC50 [1, 7]: < 1 µM
IC50 [1, 8]: 3.1 ± 0.6 µM
IC50 [1, 9]: 0.94 ± 0.09 µM
Reversal of loss of viability induced by AgNP ([5]; 10 and 50 µM, Caco-2 cells treated with AgNP < 20 nm (30–90 μg/mL)): most effectively reversed the loss of viability induced by AgNP
Reversal of toxicity induced by AgNP ([5]; quercetin 50 µM, AgNP ≥45 μg/mL, ref Martirosyan et al.): successfully reverted the toxicity induced by AgNP
Protection against AgNP-induced cytotoxicity [2]: partially prevented AgNP cytotoxicity
Protection against AgNP-induced cytotoxicity ([2]; listed as quercetin): significantly reduced the cell death induced by AgNP of 4 and 19 nm
Selected Maximum Concentration (maximum non-cytotoxic flavonoid concentration) [2]: 25.0 µM
Prevention of AgNP-induced •NO production [4]: neither quercetin nor quercetagetin prevented AgNP-induced ^•NO production

SMILES: c1ccc(Cn2nnc3c(Sc4nc5ccccc5o4)ncnc32)cc1 [VAS2870, reference compound]
Effect of inhibitors on AgNP-induced DHR oxidation [1]: decreased DHR oxidation induced by 4nm and 19 nm AgNP

IC50 ([1]; Homo sapiens, Neutrophil, read-out: IC50, inhibition of AgNP-induced neutrophil oxidative burst, AgNP of 4 and 19 nm, human neutrophils, DHR): > 25 µM
SMILES: COc1ccc(-c2cc(=O)c3c(O)cc(O)cc3o2)cc1O [Diosmetin]
Percentage of inhibition at the highest tested concentration ([1]; AgNP 4 nm, human neutrophils, DHR): 37 ± 3 %
Percentage of inhibition at the highest tested concentration ([1]; AgNP 19 nm, human neutrophils, DHR): 37 ± 7 %

IC50 [1, 7]: 1.4 ± 0.4 µM
IC50 [1, 8]: 1.5 ± 0.4 µM
SMILES: O=c1c(O)c(-c2ccc(O)cc2O)oc2cc(O)cc(O)c12 [Morin]
Selected Maximum Concentration (maximum non-cytotoxic flavonoid concentration) [2]: 50.0 µM

IC50 [1, 7]: 1.3 ± 0.2 µM
IC50 [1, 8]: 1.3 ± 0.2 µM
SMILES: O=c1cc(-c2ccc(O)c(O)c2)oc2cc(O)cc(O)c12 [Luteolin]
Selected Maximum Concentration (maximum non-cytotoxic flavonoid concentration) [2]: 12.5 µM

SMILES: O=[N+]([O-])[O-].[Ag+] [AgNO3, Silver nitrate, reference compound]
Cell viability (Annexin V/PI) ([3]; PEI 20 μg/mL, AgNO3 4.5 μg/mL, Caco-2, 24 h, data not shown): did not induce significant alterations in cell viability
Neutrophil oxidative burst ([1]; PEI 10 μg/mL, AgNO3 3 μg/mL, data not shown): did not affect neutrophil oxidative burst
Neutrophil viability [6]: did not affect neutrophil viability
•NO production ([4]; 9 μg/mL AgNO3, 24 h, Caco-2): induced a significant production of ^•NO

SMILES: c1ccc2c(c1)[I+]c1ccccc1-2 [DPI, diphenyleneiodonium chloride, reference compound]
Effect of inhibitors on AgNP-induced DHR oxidation [1]: decreased DHR oxidation induced by 4nm and 19 nm AgNP
